Assay results published in ChEMBL document CHEMBL1127224, “Peptidomimetic inhibitors of human immunodeficiency virus protease (HIV-PR): Design, enzyme binding and selectivity, antiviral efficacy, and cell permeability properties” (Bioorg Med Chem Lett, 1993).

How the values were obtained:
[1] = system: CV-1; assay: Antiviral efficacy measured by a hybrid HIV-l/vaccinia virus infected monkey cell line (HIV- l/vVK-1 infected CV- 1) which produces HIV-1 gag-pol derived polyproteins; assay type: functional, cell-based, Human immunodeficiency virus 1; conditions: Chlorocebus aethiops
[2] = system: CV-1; assay: Antiviral efficacy measured by a hybrid HIV-l/vaccinia virus infected monkey cell line (HIV- l/vVK-1 infected CV- 1) which produces HIV-1 gag-pol derived polyproteins at 10 uM concentration; assay type: functional, Human immunodeficiency virus 1; conditions: Chlorocebus aethiops
[3] = target: Human immunodeficiency virus type 1 protease (Human immunodeficiency virus 1, UniProt Q72874); assay: Evaluated for inhibitory activity against HIV-1 protease
[4] = target: T1, Cathepsin E (Homo sapiens, UniProt P14091); assay: Compound was evaluated for aspartyl protease inhibition selectivity relative to Cathepsin E
T1 sequence (P14091 whole entry): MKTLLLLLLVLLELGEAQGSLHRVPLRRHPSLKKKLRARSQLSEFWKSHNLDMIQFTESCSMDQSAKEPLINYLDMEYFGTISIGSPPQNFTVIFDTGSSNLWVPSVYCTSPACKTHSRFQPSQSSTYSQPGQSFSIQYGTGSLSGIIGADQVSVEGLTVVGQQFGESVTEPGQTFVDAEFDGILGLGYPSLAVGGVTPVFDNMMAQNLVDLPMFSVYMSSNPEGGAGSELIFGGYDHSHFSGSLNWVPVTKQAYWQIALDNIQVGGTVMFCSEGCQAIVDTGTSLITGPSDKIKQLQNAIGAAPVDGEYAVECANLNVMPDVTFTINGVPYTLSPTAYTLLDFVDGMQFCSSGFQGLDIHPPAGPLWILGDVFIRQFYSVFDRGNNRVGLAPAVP

[5] = target: Cathepsin D (Homo sapiens, UniProt P07339); assay: Compound was evaluated for aspartyl protease inhibition selectivity relative to Cathepsin D
Sequence of Cathepsin D (P07339 65-162 limits assumed): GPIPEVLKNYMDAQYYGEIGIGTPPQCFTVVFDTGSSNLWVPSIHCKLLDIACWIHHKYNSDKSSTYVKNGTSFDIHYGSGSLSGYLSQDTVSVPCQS
Sequence of Cathepsin D (P07339 169-412 limits assumed): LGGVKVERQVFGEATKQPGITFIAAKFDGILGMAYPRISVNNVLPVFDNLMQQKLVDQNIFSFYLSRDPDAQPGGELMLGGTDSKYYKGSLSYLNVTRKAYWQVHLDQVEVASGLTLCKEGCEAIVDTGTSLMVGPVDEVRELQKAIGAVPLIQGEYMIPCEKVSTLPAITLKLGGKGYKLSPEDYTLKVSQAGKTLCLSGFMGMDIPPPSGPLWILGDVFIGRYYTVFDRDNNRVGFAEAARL

[6] = target: Pepsin A (Sus scrofa, UniProt P00791); assay: Compound was evaluated for aspartyl protease inhibition selectivity relative to pepsin; design: species or system Homo sapiens
Sequence of Pepsin A (P00791 whole entry): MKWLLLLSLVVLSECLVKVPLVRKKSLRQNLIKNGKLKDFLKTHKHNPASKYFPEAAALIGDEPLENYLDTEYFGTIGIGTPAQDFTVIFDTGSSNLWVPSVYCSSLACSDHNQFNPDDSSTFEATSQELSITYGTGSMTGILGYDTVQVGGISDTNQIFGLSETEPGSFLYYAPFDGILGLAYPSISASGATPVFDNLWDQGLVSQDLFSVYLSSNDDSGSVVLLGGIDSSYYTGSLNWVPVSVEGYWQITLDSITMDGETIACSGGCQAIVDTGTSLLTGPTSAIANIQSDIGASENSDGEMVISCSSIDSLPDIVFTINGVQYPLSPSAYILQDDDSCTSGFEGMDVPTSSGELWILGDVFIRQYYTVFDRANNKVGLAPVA

[7] = target: T2, Renin (Homo sapiens, UniProt P00797); assay: Compound was evaluated for aspartyl protease inhibition selectivity relative to renin
T2 sequence (P00797 whole entry): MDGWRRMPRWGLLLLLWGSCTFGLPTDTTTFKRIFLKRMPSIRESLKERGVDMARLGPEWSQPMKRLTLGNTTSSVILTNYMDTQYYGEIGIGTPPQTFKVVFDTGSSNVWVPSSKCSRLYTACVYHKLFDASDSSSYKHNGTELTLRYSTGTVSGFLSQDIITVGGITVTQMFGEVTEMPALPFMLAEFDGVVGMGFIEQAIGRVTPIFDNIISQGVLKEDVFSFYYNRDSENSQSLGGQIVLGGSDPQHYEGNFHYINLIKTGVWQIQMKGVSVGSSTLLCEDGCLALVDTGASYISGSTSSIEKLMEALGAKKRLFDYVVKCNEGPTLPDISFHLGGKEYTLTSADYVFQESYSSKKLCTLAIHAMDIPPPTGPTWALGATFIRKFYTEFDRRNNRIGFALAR

| Structure (SMILES) | IC50 [1] | inhibition at 10 µM [2] | Ki [3] | Ki [4] | Ki [5] | Ki [6] | Ki [7] |
| --- | --- | --- | --- | --- | --- | --- | --- |
| CCC(C)[C@H](NC(=O)[C@@H](C[C@H](O)[C@H](CC1CCCCC1)NC(=O)[C@H](Cc1cn(C)cn1)NC(=O)COc1cccc2ccccc12)C(C)C)C(=O)NCc1ccccn1 (some centres undefined) | 500 nM | 85% | 30 nM | – | – | – | – |
| CCC(C)[C@H](NC(=O)[C@@H](C[C@H](O)[C@H](CC1CCCCC1)NC(=O)[C@H](Cc1c[nH]cn1)NC(=O)COc1cccc2ccccc12)C(C)C)C(=O)NCc1ccccn1 (some centres undefined) | 300 nM | 100% | 5 nM | 50 nM | 200 nM | 290 nM | 2 nM |
| CC[C@H](C)[C@H](NC(=O)[C@@H](C[C@H](O)[C@H](CC1CCCCC1)NC(C)=O)C(C)C)C(=O)NCc1cccc[n+]1[O-] | – | 20% | 16 nM | – | – | – | – |
| CCC(C)[C@H](NC(=O)[C@@H](C[C@H](O)[C@H](CC1CCCCC1)NC(=O)OC(C)(C)C)C(C)C)C(=O)NCc1ccccn1 (some centres undefined) | 300 nM | 100% | 8 nM | 90 nM | 100 nM | 330 nM | 1200 nM |
| CCC(C)[C@H](NC(=O)[C@@H](C[C@H](O)[C@H](CC1CCCCC1)NC(=O)[C@H](Cc1cnc[nH]1)NC(=O)OC(C)(C)C)C(C)C)C(=O)NCc1ccccn1 (some centres undefined) | 10000 nM | 53% | 10 nM | – | – | – | – |
| CCC(C)[C@H](NC(=O)[C@@H](C[C@H](O)[C@H](CC1CCCCC1)NC(=O)[C@@H](NC(=O)COc1cccc2ccccc12)C(C)C)C(C)C)C(=O)NCc1ccccn1 (some centres undefined) | 300 nM | 93% | 61 nM | – | – | – | – |
| CCC(C)[C@H](NC(=O)[C@@H](C[C@H](O)[C@H](CC1CCCCC1)NC(=O)[C@H](CC(N)=O)NC(=O)c1ccc2ccccc2n1)C(C)C)C(=O)NCc1ccccn1 (some centres undefined) | 300 nM | 97% | 9 nM | 3 nM | 2 nM | 12 nM | 212 nM |
| CCC(C)[C@H](NC(=O)[C@@H](C[C@H](O)[C@H](CC1CCCCC1)NC(=O)[C@H](CC(N)=O)NC(=O)COc1cccc2ccccc12)C(C)C)C(=O)NCc1ccccn1 (some centres undefined) | 300 nM | 93% | 4 nM | – | – | – | – |
| CCC(C)[C@H](NC(=O)[C@@H](C[C@H](O)[C@H](CC1CCCCC1)NC(=O)COc1ccccc1)C(C)C)C(=O)NCc1ccccn1 (some centres undefined) | 3000 nM | 90% | 61 nM | – | – | – | – |
| CC[C@@H](C)[C@@H](NC(=O)[C@@H](C[C@H](O)[C@H](CC1CCCCC1)NC(C)=O)C(C)C)C(=O)NCc1ccccn1 | – | 22% | > 1000 nM | – | – | – | – |
| CCCCCC(=O)N[C@@H](CC1CCCCC1)[C@@H](O)C[C@H](C(=O)N[C@H](C(=O)NCc1ccccn1)C(C)CC)C(C)C (some centres undefined) | 3000 nM | 67% | 47 nM | – | – | – | – |
| CC[C@H](C)[C@H](NC(=O)[C@@H](C[C@H](O)[C@H](CC1CCCCC1)NC(C)=O)C(C)C)C(=O)NCc1ccccn1 | – | 50% | 8 nM | – | – | – | – |
| CC[C@H](C)[C@H](NC(=O)[C@H](C(C)C)[C@@H](O)[C@H](O)[C@H](CC1CCCCC1)NC(=O)[C@H](Cc1c[nH]cn1)NC(=O)COc1cccc2ccccc12)C(=O)NCc1ccccn1 | 200 nM | 100% | < 1 nM | 142 nM | > 1000 nM | 265 nM | 2 nM |
| CCC(C)[C@H](NC(=O)[C@@H](C[C@H](O)[C@H](CC1CCCCC1)NC(=O)CC(C)(C)C)C(C)C)C(=O)NCc1ccccn1 (some centres undefined) | 3000 nM | 75% | 75 nM | – | – | – | – |
| CCC(C)[C@H](NC(=O)[C@@H](C[C@H](O)[C@H](CC1CCCCC1)NC(=O)[C@H](CC(N)=O)NC(=O)c1ccc2ccccc2n1)C(C)C)C(=O)O (some centres undefined) | – | 0% | – | – | – | – | – |
| CC[C@H](C)[C@H](NC(=O)[C@@H](C[C@H](O)[C@@H](N)CC1CCCCC1)C(C)C)C(=O)NCc1ccccn1 | – | 0% | 800 nM | – | – | – | – |
| CC(C)[C@H](C[C@H](O)[C@H](CC1CCCCC1)NC(=O)C(CC(N)=O)NC(=O)c1ccc2ccccc2n1)C(=O)NCC(C)(C)C (some centres undefined) | 300 nM | 70% | 14 nM | – | – | – | – |
| CCC(C)[C@H](NC(=O)[C@@H](C[C@H](O)[C@H](CC1CCCCC1)NC(=O)c1ccccn1)C(C)C)C(=O)NCc1ccccn1 (some centres undefined) | 300 nM | 100% | 8 nM | – | – | – | – |
